Read-outs that look alike come from different tables or passages of the source.
Tests used:
MOR = biological target: T1, MOR (Rattus norvegicus, UniProt P33535); experiment: Opioid receptor binding, MOR, rat brain membranes
T1 construct: from tissue

KOR = biological target: T2, KOR (Cavia porcellus, UniProt P41144); experiment: Opioid receptor binding, KOR, guinea pig brain membranes
T2 construct: from tissue

DOR = biological target: T3, DOR (Rattus norvegicus, UniProt P33533); experiment: Opioid receptor binding, DOR, rat brain membranes
T3 construct: from tissue
T3 sequence (P33533 whole entry): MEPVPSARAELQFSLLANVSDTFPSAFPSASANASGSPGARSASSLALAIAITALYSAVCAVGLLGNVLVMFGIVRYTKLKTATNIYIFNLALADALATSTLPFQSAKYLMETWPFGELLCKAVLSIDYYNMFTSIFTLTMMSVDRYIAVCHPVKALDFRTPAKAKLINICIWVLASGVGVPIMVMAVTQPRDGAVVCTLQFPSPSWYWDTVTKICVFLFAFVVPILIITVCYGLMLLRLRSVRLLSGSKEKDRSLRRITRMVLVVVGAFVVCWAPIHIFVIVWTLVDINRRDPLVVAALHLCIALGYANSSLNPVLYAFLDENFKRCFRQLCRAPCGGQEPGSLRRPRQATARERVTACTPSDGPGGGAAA

[1] = Binding Ki (nM) MOR, in vitro binding assay, rat brain membranes
[2] = Binding Ki (nM) KOR, in vitro binding assay, guinea pig brain membranes
[3] = Binding Ki (nM) DOR, in vitro binding assay, rat brain membranes
[4] = Binding Ki KOR, Table 1-4, guinea pig brain membranes
[5] = Binding Ki DOR, Table 1-4, rat brain membranes
[6] = Binding Ki MOR, Table 1-4, rat brain membranes
[7] = Binding Ki MOR, Table 1-6, rat brain membranes
[8] = Binding Ki MOR, Table 2-6, rat brain membranes
[9] = Binding Ki KOR, Table 1-6, guinea pig brain membranes
[10] = Binding Ki KOR, Table 2-6, guinea pig brain membranes
[11] = Binding Ki DOR, Table 1-6, rat brain membranes
[12] = Binding Ki DOR, Table 2-6, rat brain membranes
[13] = in vitro binding assay, rat brain membranes, read-out: Binding Ki (nM) MOR
[14] = in vitro binding assay, guinea pig brain membranes, read-out: Binding Ki (nM) KOR
[15] = in vitro binding assay, rat brain membranes, read-out: Binding Ki (nM) DOR

T2 sequence (P41144 whole entry): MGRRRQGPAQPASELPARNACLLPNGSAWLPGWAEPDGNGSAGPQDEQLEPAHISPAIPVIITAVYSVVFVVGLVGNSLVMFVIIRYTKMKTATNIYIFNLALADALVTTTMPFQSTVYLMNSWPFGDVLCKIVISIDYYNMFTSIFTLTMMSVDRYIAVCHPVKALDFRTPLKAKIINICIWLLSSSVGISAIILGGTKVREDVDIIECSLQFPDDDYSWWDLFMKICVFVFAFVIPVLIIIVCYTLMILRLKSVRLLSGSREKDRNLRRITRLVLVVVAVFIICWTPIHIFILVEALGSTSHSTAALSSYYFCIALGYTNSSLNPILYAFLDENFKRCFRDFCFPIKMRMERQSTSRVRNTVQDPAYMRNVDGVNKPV
T1 sequence (P33535 whole entry): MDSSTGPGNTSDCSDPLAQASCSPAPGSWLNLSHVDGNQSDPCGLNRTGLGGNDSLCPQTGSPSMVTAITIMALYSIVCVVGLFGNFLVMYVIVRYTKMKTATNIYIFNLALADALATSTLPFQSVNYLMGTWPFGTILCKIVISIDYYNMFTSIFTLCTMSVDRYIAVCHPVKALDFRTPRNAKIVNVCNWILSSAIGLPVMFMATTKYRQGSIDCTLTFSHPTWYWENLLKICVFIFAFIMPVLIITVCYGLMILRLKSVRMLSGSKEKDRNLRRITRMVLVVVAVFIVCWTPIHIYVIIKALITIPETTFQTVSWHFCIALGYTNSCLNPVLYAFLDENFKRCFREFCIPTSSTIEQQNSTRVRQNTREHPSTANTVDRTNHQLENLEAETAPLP

Structure (SMILES) | Ki (MOR; [1]) | Ki (KOR; [2]) | Ki (DOR; [3]) | Ki (KOR; [14]) | Ki (DOR; [15]) | further results
CCC(C)C(NC1CCC2(OC)C3Cc4ccc(O)c5c4C2(CCN3C)C1O5)C(=O)OC(C)(C)C (single isomer, unassigned) [42-t-Bu ester] | 1.04 nM | 29.2 nM | 1 nM |  |  | 
CCC(C)C(NC1CCC2(OC)C3Cc4ccc(O)c5c4C2(CCN3C)C1O5)C(=O)OC(C)(C)C (single isomer, unassigned) [43-t-Bu ester] | 2.87 nM | 208 nM | 2.12 nM |  |  | 
COC12CCC(NC(C)C(=O)O)C3Oc4c(O)ccc5c4C31CCN(C)C2C5 (single isomer, unassigned) [Compound 1] |  | 142 nM | 26.9 nM |  |  | Ki (KOR; [4]): 142 nM; Ki (DOR; [5]): 26.9 nM
COC12CCC(NC(C)C(=O)O)C3Oc4c(O)ccc5c4C31CCN(C)C2C5 (single isomer, unassigned) [Compound 2] |  | 63.7 nM | 7.71 nM |  |  | Ki (KOR; [4]): 63.7 nM; Ki (DOR; [5]): 7.71 nM
COC12CCC(NCCC(=O)O)C3Oc4c(O)ccc5c4C31CCN(C)C2C5 (single isomer, unassigned) [Compound 21] | 1.3 nM | 182 nM | 60 nM |  |  | Ki (MOR; [6]): 1.3 nM; Ki (KOR; [4]): 182 nM; Ki (DOR; [5]): 60 nM
COC12CCC(NCCC(=O)O)C3Oc4c(O)ccc5c4C31CCN(C)C2C5 (single isomer, unassigned) [Compound 22] | 1.04 nM | 71.4 nM | 13.9 nM |  |  | Ki (MOR; [6]): 1.04 nM; Ki (KOR; [4]): 71.4 nM; Ki (DOR; [5]): 13.9 nM
COC12CCC(NC(C(=O)O)C(C)C)C3Oc4c(O)ccc5c4C31CCN(C)C2C5 (single isomer, unassigned) [Compound 28] | 3.16 nM | 325 nM | 3.91 nM |  |  | Ki (MOR; [6]): 3.16 nM; Ki (KOR; [4]): 325 nM; Ki (DOR; [5]): 3.91 nM
COC12CCC(NC(C(=O)O)C(C)C)C3Oc4c(O)ccc5c4C31CCN(C)C2C5 (single isomer, unassigned) [Compound 29] | 3.04 nM | 305 nM | 3.52 nM |  |  | Ki (MOR; [6]): 3.04 nM; Ki (KOR; [4]): 305 nM; Ki (DOR; [5]): 3.52 nM
COC12CCC(NC(C(=O)O)C(C)C)C3Oc4c(O)ccc5c4C31CCN(C)C2C5 (single isomer, unassigned) [Compound 30] | 1.7 nM | 202 nM | 1.93 nM |  |  | Ki (MOR; [6]): 1.7 nM; Ki (KOR; [4]): 202 nM; Ki (DOR; [5]): 1.93 nM
COC12CCC(NC(C(=O)O)C(C)C)C3Oc4c(O)ccc5c4C31CCN(C)C2C5 (single isomer, unassigned) [Compound 31] | 1.02 nM | 159 nM | 1.68 nM |  |  | Ki (MOR; [6]): 1.02 nM; Ki (KOR; [4]): 159 nM; Ki (DOR; [5]): 1.68 nM
COC12CCC(NC(C)C(=O)O)C3Oc4c(O)ccc5c4C31CCN(C)C2C5 (single isomer, unassigned) [Compound 53] |  |  |  |  |  | Ki (KOR; [4]): 71.5 nM; Ki (DOR; [5]): 10.4 nM
COC12CCC(NC(C)C(=O)O)C3Oc4c(O)ccc5c4C31CCN(C)C2C5 (single isomer, unassigned) [Compound 54] |  |  |  |  |  | Ki (KOR; [4]): 142 nM; Ki (DOR; [5]): 11.3 nM
COC12CCC(NC(C(=O)O)C(C)C)C3Oc4c(O)ccc5c4C31CCN(CC1CC1)C2C5 (single isomer, unassigned) [Compound 68] |  |  |  |  |  | Ki (MOR; [7]): 0.44 nM; Ki (MOR; [8]): 0.44 nM; Ki (KOR; [9]): 3.34 nM; Ki (KOR; [10]): 3.34 nM; Ki (DOR; [11]): 0.53 nM; Ki (DOR; [12]): 0.53 nM
COC12CCC(NC(C(=O)O)C(C)C)C3Oc4c(O)ccc5c4C31CCN(CC1CC1)C2C5 (single isomer, unassigned) [Compound 69] |  |  |  |  |  | Ki (MOR; [7]): 0.66 nM; Ki (MOR; [8]): 0.66 nM; Ki (KOR; [9]): 3 nM; Ki (KOR; [10]): 3 nM; Ki (DOR; [11]): 1.35 nM; Ki (DOR; [12]): 1.35 nM
COC12CCC(NC(C(=O)O)C(C)C)C3Oc4c(O)ccc5c4C31CCN(CC1CC1)C2C5 (single isomer, unassigned) [Compound 70] |  |  |  |  |  | Ki (MOR; [7]): 0.62 nM; Ki (MOR; [8]): 0.62 nM; Ki (KOR; [9]): 3.54 nM; Ki (KOR; [10]): 3.54 nM; Ki (DOR; [11]): 0.71 nM; Ki (DOR; [12]): 0.71 nM
COC12CCC(NC(C(=O)O)C(C)C)C3Oc4c(O)ccc5c4C31CCN(CC1CC1)C2C5 (single isomer, unassigned) [Compound 71] |  |  |  |  |  | Ki (MOR; [7]): 1.52 nM; Ki (MOR; [8]): 1.52 nM; Ki (KOR; [9]): 23 nM; Ki (KOR; [10]): 23 nM; Ki (DOR; [11]): 0.35 nM; Ki (DOR; [12]): 0.35 nM
CO[C@@]12CC[C@H](N[C@@H](C)C(=O)OC(C)(C)C)[C@@H]3Oc4c(O)ccc5c4[C@@]31CCN(C)[C@@H]2C5 [1-t-Bu ester] | 0.29 nM | 11.3 nM | 0.41 nM |  |  | 
CO[C@@]12CC[C@@H](N[C@@H](C)C(=O)OC(C)(C)C)[C@@H]3Oc4c(O)ccc5c4[C@@]31CCN(C)[C@@H]2C5 [2-t-Bu ester] | 1.13 nM | 93.6 nM | 1.36 nM |  |  | 
CO[C@@]12CC[C@H](N[C@@H](Cc3ccccc3)C(=O)OC(C)(C)C)[C@@H]3Oc4c(O)ccc5c4[C@@]31CCN(C)[C@@H]2C5 [3-t-Bu ester] |  |  |  | 32.5 nM | 0.93 nM | Ki (MOR; [13]): 0.5 nM
CO[C@@]12CC[C@@H](N[C@@H](Cc3ccccc3)C(=O)OC(C)(C)C)[C@@H]3Oc4c(O)ccc5c4[C@@]31CCN(C)[C@@H]2C5 [4-t-Bu ester] | 2.56 nM |  |  |  | 2.66 nM | 

Structure (SMILES) | Ki (MOR; [1]) | Ki (KOR; [2]) | Ki (DOR; [3]) | Ki (KOR; [14]) | Ki (DOR; [15]) | further results
CCO[C@@]12CC[C@H](NCC(=O)OC(C)(C)C)[C@@H]3Oc4c(O)ccc5c4[C@@]31CCN(C)[C@@H]2C5 [5-t-Bu ester] | 0.2 nM | 15 nM | 0.31 nM |  |  | 
CCO[C@@]12CC[C@@H](NCC(=O)OC(C)(C)C)[C@@H]3Oc4c(O)ccc5c4[C@@]31CCN(C)[C@@H]2C5 [6-t-Bu ester] |  |  |  | 34.1 nM | 0.57 nM | Ki (MOR; [13]): 0.81 nM
CCOC(=O)CNC1CCC2(OCCCc3ccccc3)C3Cc4ccc(O)c5c4C2(CCN3C)C1O5 (stereo not drawn) [7-Et ester] |  |  |  | 0.44 nM | 0.25 nM | Ki (MOR; [13]): 0.43 nM
CN1CCC23c4c5ccc(O)c4OC2C(NCC(=O)OC(C)(C)C)CCC3(OCCCc2ccccc2)C1C5 (stereo not drawn) [7-t-Bu ester] |  |  |  | 1.26 nM | 1.01 nM | Ki (MOR; [13]): 1.4 nM
CCOC(=O)CNC1CCC2(OCCCc3ccccc3)C3Cc4ccc(O)c5c4C2(CCN3C)C1O5 (stereo not drawn) [8-Et ester] |  |  |  | 0.41 nM | 0.21 nM | Ki (MOR; [13]): 0.37 nM
CN1CCC23c4c5ccc(O)c4OC2C(NCC(=O)OC(C)(C)C)CCC3(OCCCc2ccccc2)C1C5 (stereo not drawn) [8-t-Bu ester] |  |  |  | 2.02 nM | 0.92 nM | Ki (MOR; [13]): 1.03 nM
CO[C@@]12CC[C@H](N[C@@H](Cc3ccc(O)cc3)C(=O)OC(C)(C)C)[C@@H]3Oc4c(O)ccc5c4[C@@]31CCN(C)[C@@H]2C5 [9-t-Bu ester] | 0.59 nM |  |  | 12.3 nM | 0.42 nM | 
CO[C@@]12CC[C@@H](N[C@@H](Cc3ccc(O)cc3)C(=O)OC(C)(C)C)[C@@H]3Oc4c(O)ccc5c4[C@@]31CCN(C)[C@@H]2C5 [10-t-Bu ester] |  |  |  | 184 nM | 1.88 nM | Ki (MOR; [13]): 1.53 nM
CO[C@@]12CC[C@H](NCCCC(=O)OC(C)(C)C)[C@@H]3Oc4c(O)ccc5c4[C@@]31CCN(C)[C@@H]2C5 [15-t-Bu ester] | 0.22 nM | 8.82 nM | 7.99 nM |  |  | 
CO[C@@]12CC[C@@H](NCCCC(=O)OC(C)(C)C)[C@@H]3Oc4c(O)ccc5c4[C@@]31CCN(C)[C@@H]2C5 [16-t-Bu ester] |  |  |  | 8.79 nM | 1.63 nM | Ki (MOR; [13]): 0.54 nM
CO[C@@]12CC[C@H](N[C@@H](CCC(N)=O)C(=O)OC(C)(C)C)[C@@H]3Oc4c(O)ccc5c4[C@@]31CCN(C)[C@@H]2C5 [17-t-Bu ester] | 0.18 nM | 8.97 nM | 0.18 nM |  |  | 
CO[C@@]12CC[C@@H](N[C@@H](CCC(N)=O)C(=O)OC(C)(C)C)[C@@H]3Oc4c(O)ccc5c4[C@@]31CCN(C)[C@@H]2C5 [18-t-Bu ester] | 1.65 nM | 163 nM | 1.35 nM |  |  | 
CO[C@@]12CC[C@H](N[C@@H](CCC(=O)OC(C)(C)C)C(=O)OC(C)(C)C)[C@@H]3Oc4c(O)ccc5c4[C@@]31CCN(C)[C@@H]2C5 [19-t-Bu ester] |  |  |  | 18.3 nM | 0.32 nM | Ki (MOR; [13]): 0.27 nM
CO[C@@]12CC[C@@H](N[C@@H](CCC(=O)OC(C)(C)C)C(=O)OC(C)(C)C)[C@@H]3Oc4c(O)ccc5c4[C@@]31CCN(C)[C@@H]2C5 [20-t-Bu ester] |  |  |  | 81.5 nM | 0.19 nM | Ki (MOR; [13]): 1.53 nM
CO[C@@]12CC[C@H](NCCC(=O)OC(C)(C)C)[C@@H]3Oc4c(O)ccc5c4[C@@]31CCN(C)[C@@H]2C5 [21-t-Bu ester] | 0.31 nM | 13.5 nM | 0.83 nM |  |  | 
CO[C@@]12CC[C@@H](NCCC(=O)OC(C)(C)C)[C@@H]3Oc4c(O)ccc5c4[C@@]31CCN(C)[C@@H]2C5 [22-t-Bu ester] | 0.35 nM | 7.54 nM | 0.23 nM |  |  | 
CO[C@@]12CC[C@H](N[C@@H](CCSC)C(=O)OC(C)(C)C)[C@@H]3Oc4c(O)ccc5c4[C@@]31CCN(C)[C@@H]2C5 [23-t-Bu ester] |  |  |  | 10.5 nM | 0.12 nM | Ki (MOR; [13]): 0.32 nM
CO[C@@]12CC[C@@H](N[C@@H](CCSC)C(=O)OC(C)(C)C)[C@@H]3Oc4c(O)ccc5c4[C@@]31CCN(C)[C@@H]2C5 [24-t-Bu ester] | 1.83 nM | 166 nM | 0.81 nM |  |  | 
CO[C@@]12CC[C@@H](N[C@@H](C)C(=O)OC(C)(C)C)[C@@H]3Oc4c(O)ccc5c4[C@@]31CCN(CC1CC1)[C@@H]2C5 [72-tBu ester] |  |  |  |  |  | Ki (KOR; [10]): 9.68 nM; Ki (DOR; [12]): 0.32 nM
CO[C@@]12CC[C@H](NCC(=O)OC(C)(C)C)[C@@H]3Oc4c(O)ccc5c4[C@@]31CCN(C)[C@@H]2C5 [HS730-t-Bu ester] |  | 12.1 nM | 0.54 nM |  |  | 

Reference: patent US20170217976A1, “6-(AMINO ACID)-MORPHINAN DERIVATIVES IN COMBINATION WITH PERMEATION […] FOR USE AS AN ORALLY, […], TRA[…] NASALLY AD[…]” (C[…], priority 2014, published 2017)
